From patent US20230399341A1, “7-PHENYL SUBSTITUTED 2-AMINOQUINAZOLINE INHIBITORS OF HPK1” (MERCK SHARP & DOHME LLC, priority 2020, published 2023) come the findings set out here.

The assay addresses T1, Human HPK1, catalytic domain (Homo sapiens, UniProt Q92918).
T1 sequence (Q92918 1-346): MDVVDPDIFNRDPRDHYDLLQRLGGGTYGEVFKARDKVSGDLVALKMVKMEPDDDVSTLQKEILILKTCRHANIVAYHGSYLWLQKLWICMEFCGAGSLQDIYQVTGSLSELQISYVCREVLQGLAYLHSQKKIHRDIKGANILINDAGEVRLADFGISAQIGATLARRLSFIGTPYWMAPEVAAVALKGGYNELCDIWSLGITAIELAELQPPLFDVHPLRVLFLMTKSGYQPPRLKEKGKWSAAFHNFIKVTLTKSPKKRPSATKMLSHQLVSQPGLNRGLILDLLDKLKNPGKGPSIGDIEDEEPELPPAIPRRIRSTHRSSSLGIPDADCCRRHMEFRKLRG
The assay is described as follows: HPK1-SLP76 TR-FRET Assay. It counts as biochemical. Particulars: 75 pM HPK1, ATP 10 uM, SLP76 10 nM, 30 min pre-incubation, 60 min reaction. In general terms: Time-resolved FRET reads energy transfer from a long-lived donor to a nearby acceptor.

Consider `COc1cc2c(cc1Nc1ncc3ccc(N4CC5CCS(=O)(=O)C5C4)cc3n1)CN(C)CC2` (racemic) [Compound 3-60, (±)-5-{2~-[(6-methoxy-2-meth-yl-1,2,3,4-tetrahydroisoquinolin-7-yl)amino]quinazolin-7-yl}-hexahydro-1lambda~6~-thieno-[2,3-c]pyrrole-1,1(2H)-dione], for which it took 807 nM to reach half-maximal inhibition (IC50). Regarding `Cc1c(-c2cc3nc(Nc4ccc5c(c4)CN(C)CC5(C)C)ncc3c(N)c2F)cnc2c1NCCO2` [Compound 2-150, 6-fluoro-7-(8-methyl-2,3-dihydro-1H-pyrido[2,3-b][1,4]oxazin-7-yl)-N~2~- (2,4,4-trimethyl-1,2,3,4-tetrahydroisoquinolin-7-yl)quinazoline-2,5-diamine], the IC50 (in general, the concentration needed to halve the response being measured) was 0.0614 nM. `COc1cc2c(cc1Nc1ncc3ccc(OCc4ccc(N5CCNCC5)nc4)cc3n1)CN(C)CC2` [Compound 4-1, N-(6-methoxy-2-methyl-1,2,3,4-tetrahydroisoquin-olin-7-yl)-7-{[6-(piperazin-1-yl)pyridin-3-yl]methoxy}-quinazolin-2-amine]: it took 15.2 nM to reach half-maximal inhibition (IC50). This IC50 is about 250-fold higher than that of the compound before. Compound `CNC(=O)c1ccc(Nc2ncc3c(N)c(F)c(-c4cnc5c(c4C)NCCO5)c(Cl)c3n2)c(OC)c1` [Compound 2-97, (+ or −)-4-{[5-amino-8-chloro-6-fluoro-7-(8-methyl-2,3-dihydro-1H-pyrido[2,3-b][1,4]oxazin-7-yl)quinazolin-2-yl]amino}-3-methoxy-N-methylbenzamide] showed an IC50 of 0.679 nM. In the case of `COc1cc2c(cc1Nc1ncc3ccc(-c4cncc(CN)c4)cc3n1)CNCC2` [Compound 1-49, 7-[5-(aminomethyl)pyridin-3-yl]-N-(6-methoxy-1,2,3,4-tetrahydroisoquinolin-7-yl)quinazolin-2-amine], the IC50 turned out to be 3.25 nM. This IC50 is about 4.8-fold higher than that of the compound before. On to `CCC(=O)Nc1cncc(-c2ccc3cnc(Nc4cc5c(cc4OC)CCNC5)nc3c2)c1` [Compound 1-52, N-(5-{2-[(6-methoxy-1,2,3,4-tetrahydroisoquinolin-7-yl)amino]quinazolin-7-yl}pyridin-3-yl)propanamide], for which the IC50 turned out to be 11 nM.

Consider `COc1cc2c(cc1Nc1ncc3ccc(-c4cccnc4)cc3n1)CNCC2` [Compound 1-40, N-(6-methoxy-1,2,3,4-tetrahydroisoquinolin-7-yl)-7-(pyridin-3-yl)quinazolin-2-amine], for which half-maximal inhibition (IC50) was put at 8.94 nM. The IC50 values of the last two compounds are within 1.5-fold of each other. With `Cc1c(-c2c(F)c(N)c3cnc(Nc4ccc(CC(C)(C)O)cc4)nc3c2Cl)cnc2c1NCCO2` [Compound 2-167, 1-(4-{[5-amino-8-chloro-6-fluoro-7-(8-methyl-2,3-dihydro-1H-pyrido[2,3-b][1,4]oxazin-7-yl)quinazolin-2-yl]amino}phenyl)-2-methylpropan-2-ol], the midpoint of inhibition, the IC50, lay at 70.5 nM. Consider `COc1cc2c(cc1Nc1ncc3ccc(-c4cccc(CC#N)c4)cc3n1)CNCC2` [Compound 1-55, (3-{2-[(6-methoxy-1,2,3,4-tetrahydroisoquinolin-7-yl)amino]quinazolin-7-yl}phenyl)acetonitrile], for which the concentration for half-maximal inhibition (IC50) came to 52.8 nM. `Cc1c(-c2cc3nc(Nc4ccc(CC(N)=O)cc4)ncc3cc2F)cnc2c1NCCO2` [Compound 1-131, 2-(4-{[6-fluoro-7-(8-methyl-2,3-dihydro-1H-pyrido[2,3-b][1,4]oxazin-7-yl)quinazolin-2-yl]amino}phenyl)acetamide] had an IC50 of 0.165 nM. The same measure for `Cc1c(-c2c(F)c(N)c3cnc(Nc4ccc(CS(=O)(=O)C(C)C)cc4)nc3c2Cl)cnc2c1NCCO2` [Compound 2-133, (+ and −)-8-chloro-6-fluoro-7-(8-methyl-2,3-dihydro-1H-pyrido[2,3-b][1,4]oxazin-7-yl)-N~2~- (4-{[(propan-2-yl)sulfonyl]methyl}phenyl) quinazoline-2,5-diamine]: 0.405 nM; for `COc1cc2c(cc1Nc1ncc3c(N)c(F)c(-c4cnc(-c5ncco5)cc4C)cc3n1)CN(C)CC2` [Compound 2-61, 6-fluoro-N~2~-(6-methoxy-2-methyl-1,2,3,4-tetrahydroisoquinolin-7-yl)-7-[4-methyl-6-(1,3-oxazol-2-yl)pyridin-3-yl]quinazoline-2,5-diamine]: 1.27 nM. In turn, `COc1cc(CS(=O)(=O)C(C)C)ccc1Nc1ncc2c(N)c(F)c(-c3cnc4c(c3C)NCCO4)cc2n1` [Compound 2-168, 6-fluoro-N~2~-(2-methoxy-4-{[(propan-2-yl)sulfonyl]methyl}phenyl)-7-(8-methyl-2,3-dihydro-1H-pyrido[2,3-b][1,4]oxazin-7-yl)quinazoline-2,5-diamine] had an IC50 of 0.104 nM. Against the preceding compound, the IC50 is about 12-fold lower.

Turning to `COc1cc2c(cc1Nc1ncc3ccc(-c4cccc(C#N)c4)cc3n1)CNCC2` [Compound 1-65, 3-{2-[(6-methoxy-1,2,3,4-tetrahydroisoquinolin-7-yl)amino]quinazolin-7-yl}benzonitrile], the IC50 was found to be 120 nM.

`Cc1c(-c2c(F)c(N)c3cnc(Nc4ccc(CS(C)(=O)=O)cc4)nc3c2Cl)cnc2c1NCCO2` [Compound 2-91, (+ or −)-8-chloro-6-fluoro-7-(8-methyl-2,3-dihydro-1H-pyrido[2,3-b][1,4]oxazin-7-yl)-N~2~- {4-[(methylsulfonyl)methyl]phenyl}quinazoline-2,5-diamine] yielded an IC50 of 1.32 nM. For the compound `COc1cc2c(cc1Nc1ncc3ccc(N4CCC[C@H](N5CCOC5=O)C4)cc3n1)CN(C)CC2` [Compound 3-50, 3-[(3S)-1-{2-[(6-methoxy-2-methyl-1,2,3,4-tetrahydroiso-quinolin-7-yl)amino]quinazolin-7-yl}piperidin-3-yl]-1,3-oxazol-idin-2-one], the midpoint of inhibition, the IC50, lay at 771 nM. The compound `COc1cc2c(cc1Nc1ncc3ccc(-c4c[nH]nc4C)cc3n1)CN(C)CC2` [Compound 1-105, N-(6-methoxy-2-methyl-1,2,3,4-tetrahydroisoquinolin-7-yl)-7-(3-methyl-1H-pyrazol-4-yl)quinazolin-2-amine] had an IC50 of 196 nM.

The compound `Cc1c(-c2cc3nc(Nc4ccc(CCC#N)cc4)ncc3c(N)c2F)cnc2c1NCCO2` [Compound 2-116, 3-(4-{[5-amino-6-fluoro-7-(8-methyl-2,3-dihydro-1H-pyrido[2,3-b][1,4]oxazin-7-yl)quinazolin-2-yl]amino}phenyl)propane-nitrile] had an IC50 of 0.142 nM. `Cc1c(-c2cc3nc(Nc4ccc5c(c4)CCS(=O)(=O)C5)ncc3c(N)c2F)cnc2c1NCCO2` [Compound 2-138, 6-{[5-amino-6-fluoro-7-(8-methyl-2,3-dihydro-1H-pyrido[2,3-b][1,4]oxazin-7-yl)quinazolin-2-yl]amino}-3,4-dihydro-2-benzothiopyran-2,2(1H)-dione] registered an IC50 of 0.068 nM. Compound `COc1cc2c(cc1Nc1ncc3ccc(-c4cnc5c(c4)OCCN5C)cc3n1)CNCC2` [Compound 1-29, N-(6-methoxy-1,2,3,4-tetrahydroisoquinolin-7-yl)-7-(4-methyl-3,4-dihydro-2H-pyrido[3,2-b][1,4]oxazin-7-yl)quinazolin-2-amine] displayed an IC50 of 85.8 nM. Take `Cc1c(-c2cc3nc(Nc4cc5c(cc4Cl)CCN(C)C5)ncc3c(N)c2F)cnc2c1NCCO2` [Compound 2-64, N~2~-(6-chloro-2-methyl-1,2,3,4-tetrahydroisoquinolin-7-yl)-6-fluoro-7-(8-methyl-2,3-dihydro-1H-pyrido[2,3-b][1,4]oxazin-7-yl)quinazoline-2,5-diamine]: half-maximal inhibition (IC50) required 0.782 nM.

For the compound `COC1CC(NC(=O)c2ccc(Nc3ncc4c(N)c(F)c(-c5cnc6c(c5C)NCCO6)cc4n3)cc2)C1` (stereo not shown) [Compound 2-58, 4-{[5-amino-6-fluoro-7-(8-methyl-2,3-dihydro-1H-pyrido[2,3-b][1,4]oxazin-7-yl)quinazolin-2-yl]amino}-N-(3-methoxycyclobutyl) benzamide], the IC50 stood at 0.0791 nM.

In turn, `CCS(=O)(=O)Cc1ccc(Nc2ncc3c(N)c(F)c(-c4cnc5c(c4C)NCCO5)cc3n2)c(F)c1` [Compound 2-143, N~2~-{4-[(ethylsulfonyl)methyl]-2-fluorophenyl}-6-fluoro-7-(8-methyl-2,3-dihydro-1H-pyrido[2,3-b][1,4]oxazin-7-yl)quinazoline-2,5-diamine] returned an IC50 of 0.0888 nM. This IC50 and that of the compound before are within 1.5-fold of each other. The compound `CN1CCc2ccc(Nc3ncc4c(N)c(F)c(-c5cnc6c(c5Cl)NCCO6)cc4n3)cc2C1` [Compound 2-160, 7-(8-chloro-2,3-dihydro-1H-pyrido[2,3-b][1,4]oxazin-7-yl)-6-fluoro-N~2~-(2-methyl-1,2,3,4-tetrahydroisoquinolin-7-yl)quinazoline-2,5-diamine] registered an IC50 of 0.0326 nM. This IC50 is about 2.7-fold lower than that of the compound before. The compound `COc1cc2c(cc1Nc1ncc3ccc(-c4cnccc4C)cc3n1)CN(C)CC2` [Compound 1-2, N-(6-methoxy-2-methyl-1,2,3,4-tetrahydroisoquinolin-7-yl)-7-(4-methylpyridin-3-yl)quinazolin-2-amine] yielded an IC50 of 26.2 nM. The same measure for `Cc1c(-c2cc3nc(Nc4ccc5c(c4)CC(C)(C)N(C)C5)ncc3c(N)c2F)cnc2c1NCCO2` (single isomer, unassigned) [Compound 2-126, 6-fluoro-7-(8-methyl-2,3-dihydro-1H-pyrido[2,3-b][1,4]oxazin-7-yl)-N2-(2,3,3-trimethyl-1,2,3,4-tetrahydroisoquinolin-6-yl)quinazoline-2,5-diamine]: 0.0898 nM; for `COc1cc2c(cc1Nc1ncc3ccc(-c4cnn(CC(C)O)c4)cc3n1)CN(C)CC2` (racemic) [Compound 1-102, (R and S)-1-(4-{2-[(6-methoxy-2-methyl-1,2,3,4-tetrahydroisoquinolin-7-yl)amino]quinazolin-7-yl}-1H-pyrazol-1-yl)propan-2-ol]: 22.2 nM. The same measure for `Cc1c(-c2cc3nc(Nc4ccc5c(c4)CN(C)CC5)ncc3cc2F)cnc2c1NCCO2` [Compound 1-114, 6-fluoro-7-(8-methyl-2,3-dihydro-1H-pyrido[2,3-b][1,4]oxazin-7-yl)-N-(2-methyl-1,2,3,4-tetrahydroisoquinolin-7-yl)quinazolin-2-amine]: 0.0883 nM.
